{"source": "BindingDB's records for doi:10.1074/jbc.M600168200", "about": "(Duke University Medical Center, 2006)", "key": {"[1]": {"target": "Geranylgeranyl transferase type-1 subunit beta [A2V]/Protein farnesyltransferase/geranylgeranyltransferase type-1 subunit alpha (Homo sapiens, UniProt P49354+P53609, A2V)", "sequence (P53609 whole entry A2V, other chains not shown)": "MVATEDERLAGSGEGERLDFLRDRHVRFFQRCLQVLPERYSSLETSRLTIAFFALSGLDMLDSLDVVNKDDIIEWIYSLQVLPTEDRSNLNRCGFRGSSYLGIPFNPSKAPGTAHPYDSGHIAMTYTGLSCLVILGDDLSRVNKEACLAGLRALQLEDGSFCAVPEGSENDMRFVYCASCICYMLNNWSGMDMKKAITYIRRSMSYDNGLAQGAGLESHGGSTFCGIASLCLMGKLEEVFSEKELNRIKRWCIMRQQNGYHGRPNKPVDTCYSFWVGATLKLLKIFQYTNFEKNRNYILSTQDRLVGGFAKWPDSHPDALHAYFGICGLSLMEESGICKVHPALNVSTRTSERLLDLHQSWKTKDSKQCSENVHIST", "experiment": "In Vitro FTase/GGTase-1 Inhibition Assay", "details": "pH 7.7; 30 °C", "experimental": "(§1) Compounds were tested as inhibitors of FTase or GGTase-1 in vitro using purified recombinant mammalian enzymes to catalyze the reactions between [3H] FPP or [3H]GGPP, and recombinant protein substrates. Incorporation of radiolabeled isoprenoid into Ras protein substrate was quantitated by precipitation of total protein with acid and scintillation counting. The inhibitory activity of the compounds is reported as an IC50 value, the concentration of inhibitor required to reduce radiolabel incorporation by 50% compared with an uninhibited control experiment."}, "[2]": {"target": "Protein farnesyltransferase subunit beta/geranylgeranyltransferase type-1 subunit alpha (Homo sapiens, UniProt P49354+P49356)", "experiment": "In Vitro FTase/GGTase-1 Inhibition Assay", "details": "pH 7.7; 30 °C", "experimental": "as §1"}}}
{"smiles": "CSCCc1c(-c2cccnc2)nn(-c2ccc(Cl)c(Cl)c2)c1OCCCC(=O)N[C@@H](Cc1ccccc1)C(N)=O", "note": "[N-[(S)-1-carbamoyl-2-phenylethyl]-4-[2-(3,4-di-chlorophenyl)-4-(2-methylsulfanylethyl)-5-pyridin-3-yl-2-H-pyrazol-3-yloxy]butyramide]", "values": [{"measurement": "IC50", "setting": "[1]", "value": 8.24, "unit": "nM"}, {"measurement": "IC50", "setting": "[2]", "value": "> 2000", "unit": "nM"}]}
